Source: patent publication US6506747B1, “Substituted 1-(4-aminophenyl)pyrazoles and their use as anti-inflammatory agents” (Boehringer Ingelheim Pharmaceuticals, Inc., priority 1998, dated 2003)

Test system: IL-2 promoter/enhancer
Test: IL-2 promoter assay (luciferase reporter in Jurkat J.1F/C6 cells)
Type: cell-based
Conditions: Homo sapiens; J.1F/C6 Jurkat cell line, IL-2 promoter luciferase reporter; read-out: IC50, inhibition of luciferase activity induced by ionomycin and PMA
Text: The IL-2 promoter assay measures transcriptional activation of a luciferase reporter gene which has been placed under control of the IL-2 promoter/enhancer. All the known regulatory features of the IL2gene are contained within a 300 bp sequence immediately upstream of the open reading frame. The region −328 to +35 relative to the transcription start site of the IL-2 gene is obtained by RT-PCR of human genomic DNA and is subcloned into the promoterless luciferase reporter vector pGL2-Basic (Promega). The resulting construct, pIL2P-luc, and a vector containing a neomycin resistance gene, pcDNA/Neo (Invitrogen), are linearized and stably transfected into Jurkat cells (a human T cell line) by electroporation. […] For screening compounds, the cells are pelleted by centrifugation, washed once with PBS, resuspended in RPMI (phenol red-free) containing 5% FBS, and dispensed into 96-well, white microtiter plates (Packard) at 50,000 cells/well. The cells are pre-incubated with compounds (1 μg/ml) for 15 min prior to addition of ionomycin (1 μg/ml) and PMA (10 ng/ml) in a final volume of 100 μl. Following a 5 hr incubation at 37° C. in a humidified incubator, 100 μl of Luc-Lite lysis buffer/luciferase assay buffer (Promega) is added and luminescence measured using a Packard TopCount scintillation counter/luminometer.

| IC50 | Structure (SMILES) |
| --- | --- |
| 0.3 nM | C=CC[C@@H]1/C=C(\C)C[C@H](C)C[C@H](OC)[C@H]2O[C@@](O)(C(=O)C(=O)N3CCCC[C@H]3C(=O)O[C@H](/C(C)=C/[C@@H]3CC[C@@H](O)[C@H](OC)C3)[C@H](C)[C@@H](O)CC1=O)[C@H](C)C[C@@H]2OC [FK506] |

Test system: not given
Test: not given
Conditions: not given

| melting point | Structure (SMILES) |
| --- | --- |
| 243 to 245 °C | O=C(Nc1ccc(-n2nc(C(F)(F)F)cc2C(F)(F)F)cc1)c1ccccc1 [Example 538] |
| 175 to 176 °C | CC(=O)Nc1ccc(-n2nc(C(F)(F)F)cc2C(F)(F)F)cc1 [Example 547] |
| 89 to 90 °C | FC(F)(F)c1cc(C(F)(F)F)n(-c2ccc(NCc3ccc(Cl)cc3)cc2)n1 [Example 548] |
| 107 to 109 °C | CCCCCC(=O)Nc1ccc(-n2nc(C(F)(F)F)cc2C(F)(F)F)cc1 [Example 584] |
| 54 °C | CCNc1ccc(-n2nc(C(F)(F)F)cc2C(F)(F)F)cc1 [Example 613] |
| 220 to 222 °C | FC(F)(F)c1cc(C(F)(F)F)n(-c2ccc(Nc3nc4ccccc4[nH]3)cc2)n1 [Example 644] |
| 205 to 220 °C | FC(F)(F)c1cc(C(F)(F)F)n(-c2ccc(Nc3nccc4ccccc34)cc2)n1 [Example 648] |
| 244 to 254 °C | FC(F)(F)c1cc(Cl)n(-c2ccc(Nc3nccc4ccccc34)cc2)n1 [Example 683] |
| 231 to 233 °C | O=C(Nc1ccc(-n2nc(C(F)(F)F)cc2C(F)(F)F)cc1)C1CCCNC1 (stereo not drawn) [Example 688] |
| 188 to 189 °C | O=C(Nc1ccc(-n2nc(C(F)(F)F)cc2C(F)(F)F)cc1)c1cnccn1 [Example 698] |
| 204 to 205 °C | O=C(Nc1ccc(-n2nc(C(F)(F)F)cc2C(F)(F)F)cc1)c1ccnc2ccccc12 [Example 711] |
| 196 °C | O=C(Nc1ccc(-n2nc(C(F)(F)F)cc2C(F)(F)F)cc1)c1cnc2ccccc2n1 [Example 712] |
| 185 to 186 °C | O=C(Nc1ccc(-n2nc(C(F)(F)F)cc2C(F)(F)F)cc1)N1CCOCC1 [Example 726] |
| 176 to 178 °C | Cc1cc(C(F)(F)F)nn1-c1ccc(NC(=O)C2CCCC2)cc1 [Example 780] |
| 247 °C | N#Cc1ccc(Nc2ccc(-n3nc(C(F)(F)F)cc3C(F)(F)F)cc2)cc1 [Example 864] |
| 218 to 219 °C | FC(F)(F)c1cc(C(F)(F)F)n(-c2ccc(Nc3ccncn3)cc2)n1 [Example 886] |
| 176 to 178 °C | CSc1cc(-c2ccco2)nn1-c1ccc(NC(=O)c2ccc(Cl)cc2)cc1 [Example 1077] |
| 110 °C | C[S+]([O-])c1cc(-c2ccco2)nn1-c1ccc(NC(=O)c2ccc(Cl)cc2)cc1 (stereo not drawn) [Example 1101] |
| 177 to 178 °C | CN(C)Cc1cc(C(F)(F)F)n(-c2ccc(NC(=O)c3ccc(Cl)cc3)cc2)n1 [Example 1128] |
| 123 to 124 °C | CCc1cc(C(C)C)nn1-c1ccc(Nc2ncccc2C#N)cc1 [Example 1160] |
| 173 to 175 °C | CCc1cc(C(C)C)nn1-c1ccc(NC(=O)c2c(C)noc2C)cc1 [Example 1200] |
| 87 to 88 °C | CCc1cc(C(C)C)nn1-c1ccc(NCc2c(C)noc2C)cc1 [Example 1201] |
| 179 to 182 °C | CCc1cc(C(F)(F)F)nn1-c1ccc(NC(=O)c2c(C)ncn2C)cc1 [Example 1207] |
| 93 to 95 °C | CCc1cc(C(F)(F)F)nn1-c1ccc(NCc2sccc2C)cc1 [Example 1247] |
| 87 to 89 °C | CCc1cc(C(F)(F)F)nn1-c1ccc(NCc2ccc(C)s2)cc1 [Example 1248] |
| 169 to 171 °C | CCc1cc(C(C)C)nn1-c1ccc(NC(=O)c2cnccn2)cc1 [Example 1312] |
